Reference: US8614201B2 (Janssen Pharmaceutica NV, priority 2009, dated 2013)

Molecular target: Human TRPA1 (Homo sapiens, UniProt O75762)
Assay: Assay 1: In vitro cellular testing of TRPA1 modulation (CHO-TREx, Fluo-3 calcium fluorescence, AITC agonist)
Assay type: cell-based
Design: expressed in transfected cells; host or cells: CHO-TREx cells (Invitrogen), vector pcDNA4/TO
Conditions: CHO-TREx cells expressing human TRPA1; Fluo-3 fluorescence (FLIPR/Tetra); agonist 15 μM allyl isothiocyanate (AITC); 30 minute antagonist incubation
In short: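 Antagonist potency is the 50% reduction of the AITC (15 μM) calcium response, Hill-fitted against no-antagonist and 10 μM ruthenium red controls. Fluo-3-loaded (4 μM) CHO-TREx cells with tetracycline-inducible human TRPA1 got compound in HEPES saline pH 7.4 for 30 min, usually from 10 μM in three-fold dilutions.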

Sequence of Human TRPA1 (O75762 whole entry): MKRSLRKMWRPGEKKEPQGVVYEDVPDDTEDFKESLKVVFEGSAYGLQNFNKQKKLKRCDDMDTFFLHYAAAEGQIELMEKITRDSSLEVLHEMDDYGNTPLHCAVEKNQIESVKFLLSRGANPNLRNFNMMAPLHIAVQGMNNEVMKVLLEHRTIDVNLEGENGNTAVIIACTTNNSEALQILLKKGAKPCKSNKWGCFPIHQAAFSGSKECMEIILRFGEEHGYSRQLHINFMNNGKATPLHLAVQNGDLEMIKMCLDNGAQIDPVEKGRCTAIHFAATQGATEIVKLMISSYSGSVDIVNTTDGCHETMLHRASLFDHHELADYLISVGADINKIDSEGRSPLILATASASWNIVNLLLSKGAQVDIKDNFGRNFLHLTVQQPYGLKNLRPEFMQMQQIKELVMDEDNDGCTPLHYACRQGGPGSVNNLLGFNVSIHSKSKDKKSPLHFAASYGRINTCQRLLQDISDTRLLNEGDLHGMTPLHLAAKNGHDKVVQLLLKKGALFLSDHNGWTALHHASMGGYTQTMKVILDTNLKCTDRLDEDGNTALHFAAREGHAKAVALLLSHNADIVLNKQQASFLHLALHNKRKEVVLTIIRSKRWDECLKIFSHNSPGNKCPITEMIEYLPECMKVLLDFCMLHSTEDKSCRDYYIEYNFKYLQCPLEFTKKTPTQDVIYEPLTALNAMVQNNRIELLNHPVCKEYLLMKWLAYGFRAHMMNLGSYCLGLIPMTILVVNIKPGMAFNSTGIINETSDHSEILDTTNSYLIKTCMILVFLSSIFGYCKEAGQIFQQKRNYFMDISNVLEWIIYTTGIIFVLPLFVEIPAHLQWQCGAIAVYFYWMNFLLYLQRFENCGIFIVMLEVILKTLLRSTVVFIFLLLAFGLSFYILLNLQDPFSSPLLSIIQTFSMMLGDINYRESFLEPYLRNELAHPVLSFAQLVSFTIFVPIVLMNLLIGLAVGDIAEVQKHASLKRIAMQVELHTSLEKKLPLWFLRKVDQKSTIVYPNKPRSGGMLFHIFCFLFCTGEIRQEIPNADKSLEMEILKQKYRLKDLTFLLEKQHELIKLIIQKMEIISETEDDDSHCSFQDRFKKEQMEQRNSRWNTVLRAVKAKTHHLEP

IC50 [nM]	Structure (SMILES)
797	O=C(NCc1cc(NCc2ccncc2)nc(-c2ccc(C(F)(F)F)cc2)c1)[C@@H]1C=CCN1S(=O)(=O)c1ccc(Cl)s1 [Example 391, (2S)-1-[(5-Chlorothiophen-2-yl)sulfonyl]-N-({2-[(pyridin-4-ylmethyl)amino]-6-[4-(trifluoromethyl)phenyl]pyridin-4-yl}methyl)-2,5-dihydro-1H-pyrrole-2-carboxamide]
414	O=C(NCc1cc(NCc2ccccn2)nc(-c2ccc(C(F)(F)F)cc2)c1)[C@@H]1CCCN1S(=O)(=O)c1ccc(F)cc1 [Example 392, 1-[(4-Fluorophenyl)sulfonyl]-N-({2-[(pyridin-2-ylmethyl)amino]-6-[4-(trifluoromethyl)phenyl]pyridin-4-yl}methyl)-L-prolinamide]
461	CN(C)c1cc(CNC(=O)[C@@H]2CC(F)(F)CN2S(=O)(=O)c2ccc(F)cc2)cc(-c2ccc(C(F)(F)F)cc2)n1 [Example 393, N-({2-(Dimethylamino)-6-[4-(trifluoromethyl)phenyl]pyridin-4-yl}methyl)-4,4-difluoro-1-[(4-fluorophenyl)sulfonyl]-L-prolinamide]
598	O=C(NCc1cc(NCc2ccccc2)nc(-c2ccc(C(F)(F)F)cc2)c1)[C@@H]1CC(F)(F)CN1S(=O)(=O)c1ccc(F)cc1 [Example 394, N-({2-(Benzylamino)-6-[4-(trifluoromethyl)phenyl]pyridin-4-yl}methyl)-4,4-difluoro-1-[(4-fluorophenyl)sulfonyl]-L-prolinamide]
2980	O=C(NCc1cc(NCc2cccnc2)nc(-c2ccc(C(F)(F)F)cc2)c1)[C@@H]1CCCN1S(=O)(=O)c1ccc(F)cc1 [Example 395, 1-[(4-Fluorophenyl)sulfonyl]-N-({2-[(pyridin-3-ylmethyl)amino]-6-[4-(trifluoromethyl)phenyl]pyridin-4-yl}methyl)-L-prolinamide]
1790	CC1CCCN1c1cc(CNC(=O)[C@@H]2CC(F)(F)CN2S(=O)(=O)c2ccc(F)cc2)cc(-c2ccc(C(F)(F)F)cc2)n1 (stereo partly drawn) [Example 396, 4,4-Difluoro-1-[(4-fluorophenyl)sulfonyl]-N-({2-(2-methylpyrrolidin-1-yl)-6-[4-(trifluoromethyl)phenyl]pyridin-4-yl}methyl)-L-prolinamide]
2950	CC1CCCN1c1cc(CNC(=O)[C@@H]2CC(F)(F)CN2S(=O)(=O)c2ccc(Cl)s2)cc(-c2ccc(C(F)(F)F)cc2)n1 (stereo partly drawn) [Example 397, 1-[(5-Chlorothiophen-2-yl)sulfonyl]-4,4-difluoro-N-({2-(2-methylpyrrolidin-1-yl)-6-[4-(trifluoromethyl)phenyl]pyridin-4-yl}methyl)-L-prolinamide]
7090	CC(Nc1cc(CNC(=O)[C@@H]2CC(F)(F)CN2S(=O)(=O)c2ccc(F)cc2)cc(-c2ccc(C(F)(F)F)cc2)n1)c1cccnc1 (stereo partly drawn) [Example 398, 4,4-Difluoro-1-[(4-fluorophenyl)sulfonyl]-N-({2-[(1-pyridin-3-ylethyl)amino]-6-[4-(trifluoromethyl)phenyl]pyridin-4-yl}methyl)-L-prolinamide]
2610	CC(Nc1cc(CNC(=O)[C@@H]2CC(F)(F)CN2S(=O)(=O)c2ccc(Cl)s2)cc(-c2ccc(C(F)(F)F)cc2)n1)c1cccnc1 (stereo partly drawn) [Example 399, 1-[(5-Chlorothiophen-2-yl)sulfonyl]-4,4-difluoro-N-({2-[(1-pyridin-3-ylethyl)amino]-6-[4-(trifluoromethyl)phenyl]pyridin-4-yl}methyl)-L-prolinamide]
1830	CC(Nc1cc(CNC(=O)[C@@H]2CC(F)(F)CN2S(=O)(=O)c2ccc(Cl)s2)cc(-c2ccc(C(F)(F)F)cc2)n1)c1ccncc1 (stereo partly drawn) [Example 400, 1-[(5-Chlorothiophen-2-yl)sulfonyl]-4,4-difluoro-N-({2-[(1-pyridin-4-ylethyl)amino]-6-[4-(trifluoromethyl)phenyl]pyridin-4-yl}methyl)-L-prolinamide]
